# ChEMBL document CHEMBL1765084, “Pyrimidine-2,4,6-trione derivatives and their inhibition of mutant SOD1-dependent protein aggregation. Toward a treatment for amyotrophic lateral sclerosis” (J Med Chem, 2011)
# The source made the active and inactive calls. The calls are words filed in the database; no cut-off is given here.
# Tests used:
# PC-12 [1] = test: Cytoprotection against SOD1 G93A mutant induced cytotoxicity in rat PC12 cells assessed as reduction of protein aggregates by fluorescent assay; type: functional, cell-based
# [2] = biological target: D(3) dopamine receptor (Homo sapiens) (UniProt P35462); test: Inhibition of dopamine D3 receptor at 10 uM by radioligand binding assay
# Rattus norvegicus [3] = test: Tmax in Sprague-Dawley rat at 1 mg/kg, po; type: ADME, organism-based; set-up: dose 1 mg/kg, route oral; conditions: in vivo
# Rattus norvegicus [4] = test: Cmax in Sprague-Dawley rat at 1 mg/kg, po; type: ADME, organism-based; set-up: dose 1 mg/kg, route oral; conditions: in vivo
# [5] = biological target: T1, Estrogen receptor (Homo sapiens) (UniProt P03372); test: Inhibition of ER alpha receptor at 10 uM by radioligand binding assay
# T1 sequence (whole entry): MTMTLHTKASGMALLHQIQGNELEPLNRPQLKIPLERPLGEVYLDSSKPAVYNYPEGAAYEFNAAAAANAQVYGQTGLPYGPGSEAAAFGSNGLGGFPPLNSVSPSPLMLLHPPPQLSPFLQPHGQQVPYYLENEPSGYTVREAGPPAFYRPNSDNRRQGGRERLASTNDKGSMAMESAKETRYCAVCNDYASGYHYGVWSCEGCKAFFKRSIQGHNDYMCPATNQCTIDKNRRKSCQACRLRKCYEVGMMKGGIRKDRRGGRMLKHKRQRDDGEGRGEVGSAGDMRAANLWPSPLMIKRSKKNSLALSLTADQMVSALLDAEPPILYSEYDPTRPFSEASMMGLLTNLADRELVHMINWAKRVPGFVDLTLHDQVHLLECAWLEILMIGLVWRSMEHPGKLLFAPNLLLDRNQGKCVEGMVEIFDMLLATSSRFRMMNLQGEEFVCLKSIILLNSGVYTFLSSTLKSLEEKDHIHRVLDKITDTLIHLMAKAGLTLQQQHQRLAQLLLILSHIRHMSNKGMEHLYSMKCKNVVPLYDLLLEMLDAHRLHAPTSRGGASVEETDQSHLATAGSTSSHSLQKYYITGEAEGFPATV
# Rattus norvegicus [6] = test: AUC last in Sprague-Dawley rat at 1 mg/kg, iv; type: ADME, organism-based, Plasma; set-up: time 0 - last, dose 1 mg/kg, route intravenous; conditions: in vivo
# Cytochrome P450 2D6 = Cytochrome P450 2D6 (Homo sapiens, UniProt P10635); test: Inhibition of CYP2D6 in human liver microsomes; type: ADME, Microsome
# Cytochrome P450 1A2 = biological target: T2, Cytochrome P450 1A2 (Homo sapiens, UniProt P05177); test: Inhibition of CYP1A2 in human liver microsomes
# T2 sequence (P05177 whole entry): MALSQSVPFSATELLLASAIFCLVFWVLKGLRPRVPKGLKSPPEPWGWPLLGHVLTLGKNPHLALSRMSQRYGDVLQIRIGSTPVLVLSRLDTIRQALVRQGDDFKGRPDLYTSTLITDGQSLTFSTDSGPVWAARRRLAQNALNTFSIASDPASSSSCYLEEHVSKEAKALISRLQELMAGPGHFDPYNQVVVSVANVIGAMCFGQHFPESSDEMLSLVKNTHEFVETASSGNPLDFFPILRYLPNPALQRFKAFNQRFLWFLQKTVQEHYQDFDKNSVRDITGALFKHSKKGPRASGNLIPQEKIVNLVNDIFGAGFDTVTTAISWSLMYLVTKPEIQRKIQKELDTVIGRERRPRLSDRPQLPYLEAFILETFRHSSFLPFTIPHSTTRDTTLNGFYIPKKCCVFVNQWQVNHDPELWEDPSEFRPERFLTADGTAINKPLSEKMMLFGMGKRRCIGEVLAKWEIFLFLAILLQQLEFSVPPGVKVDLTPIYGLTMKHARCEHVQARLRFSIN
# Cytochrome P450 2C9 = Cytochrome P450 2C9 (Homo sapiens, UniProt P11712); test: Inhibition of CYP2C9 in human liver microsomes
# hERG (KCNH2) = hERG (KCNH2) (Homo sapiens, UniProt Q12809); test: Inhibition of human ERG in cells at 10 uM by patch clamp assay relative to control; conditions: cells expressing human ERG
# Rattus norvegicus [7] = test: AUC/dose in Sprague-Dawley rat at 1 mg/kg, po; type: ADME, organism-based, Plasma; set-up: dose 1 mg/kg, route oral; conditions: in vivo
# [8] = Inhibition of GABA transporter at 10 uM by radioligand binding assay
# Liver = test: Half life of the compound in B6SJL mouse liver microsome; conditions: microsomes
# Caco-2 = test: Apparent Permeability across basolateral to apical side in human Caco2 cells at 50 uM after 2 hrs; conditions: caco-2, 2 h
# Cytochrome P450 3A4 = Cytochrome P450 3A4 (Homo sapiens, UniProt P08684); test: Inhibition of CYP3A4 in human liver microsomes; type: ADME, Microsome
# Rattus norvegicus [9] = test: Oral bioavailability in Sprague-Dawley rat at 1 mg/kg; type: ADME, organism-based; conditions: in vivo
# Rattus norvegicus [10] = test: Half life in Sprague-Dawley rat at 1 mg/kg, po; type: ADME, organism-based; set-up: dose 1 mg/kg, route oral; conditions: in vivo
# Plasma [11] = test: Plasma protein binding in rat at 2 uM; type: ADME, cell-free
# PC-12 [12] = test: Cytoprotection against SOD1 G93A mutant induced cytotoxicity in rat PC12 cells assessed as reduction of protein aggregates at 10 uM by fluorescent assay in presence of proteasome inhibitor MG132; type: functional, cell-based
# Rattus norvegicus [13] = test: Half life in Sprague-Dawley rat at 1 mg/kg, iv; type: ADME, organism-based; set-up: dose 1 mg/kg, route intravenous; conditions: in vivo
# Plasma [14] = test: Half life in B6SJL mouse plasma by LC-MS/MS analysis
# Rattus norvegicus [15] = test: AUC/dose in Sprague-Dawley rat at 1 mg/kg, iv; type: ADME, organism-based, Plasma; set-up: dose 1 mg/kg, route intravenous; conditions: in vivo
# PC-12 [16] = test: Cytoprotection against SOD1 G93A mutant induced cytotoxicity in rat PC12 cells assessed as reduction of protein aggregates at 1 uM by fluorescent assay; type: functional, cell-based
# PC-12 [17] = test: Cytoprotection against SOD1 G93A mutant induced cytotoxicity in rat PC12 cells after 24 hrs by fluorescent assay; type: functional, cell-based
# Liver microsomes = test: Half life of the compound in human liver microsomes
# [18] = Inhibition of sodium channel site 2 at 10 uM by radioligand binding assay
# Rattus norvegicus [19] = test: Volume of distribution at steady state in Sprague-Dawley rat at 1 mg/kg, iv; type: ADME, organism-based; set-up: dose 1 mg/kg, route intravenous; conditions: in vivo
# Plasma [20] = test: Plasma protein binding in human at 2 uM; type: ADME, cell-free
# Cytochrome P450 2C19 = Cytochrome P450 2C19 (Homo sapiens, UniProt P33261); test: Inhibition of CYP2C19 in human liver microsomes
# Sequence of Cytochrome P450 2C19 (P33261 whole entry): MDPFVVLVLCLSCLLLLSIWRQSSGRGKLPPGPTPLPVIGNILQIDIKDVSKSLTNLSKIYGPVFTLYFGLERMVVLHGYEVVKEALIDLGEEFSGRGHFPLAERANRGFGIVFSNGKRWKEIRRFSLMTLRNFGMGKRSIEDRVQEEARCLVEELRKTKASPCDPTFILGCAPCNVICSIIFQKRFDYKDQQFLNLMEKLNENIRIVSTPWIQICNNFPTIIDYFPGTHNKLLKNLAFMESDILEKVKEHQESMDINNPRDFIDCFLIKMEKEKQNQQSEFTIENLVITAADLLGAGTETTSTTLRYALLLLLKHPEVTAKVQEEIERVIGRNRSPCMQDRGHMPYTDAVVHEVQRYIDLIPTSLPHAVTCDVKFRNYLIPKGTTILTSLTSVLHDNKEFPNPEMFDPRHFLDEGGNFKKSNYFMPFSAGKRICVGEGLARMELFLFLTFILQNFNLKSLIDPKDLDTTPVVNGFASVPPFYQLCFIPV
# Sequence of Cytochrome P450 3A4 (P08684 whole entry): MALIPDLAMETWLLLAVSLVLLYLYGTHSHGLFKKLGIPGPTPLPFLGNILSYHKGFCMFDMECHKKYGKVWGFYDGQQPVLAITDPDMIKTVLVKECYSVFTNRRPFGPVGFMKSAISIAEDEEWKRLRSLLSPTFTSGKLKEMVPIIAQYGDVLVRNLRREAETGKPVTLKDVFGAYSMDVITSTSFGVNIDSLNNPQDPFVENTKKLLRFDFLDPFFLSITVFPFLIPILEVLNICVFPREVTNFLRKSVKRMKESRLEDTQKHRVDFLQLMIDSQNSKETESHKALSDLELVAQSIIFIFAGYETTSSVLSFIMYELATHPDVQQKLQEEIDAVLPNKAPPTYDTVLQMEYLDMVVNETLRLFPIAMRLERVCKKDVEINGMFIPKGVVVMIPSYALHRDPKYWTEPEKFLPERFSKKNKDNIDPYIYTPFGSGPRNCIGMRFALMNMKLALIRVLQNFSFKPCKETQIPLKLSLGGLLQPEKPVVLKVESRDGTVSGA
# Sequence of hERG (KCNH2) (Q12809 whole entry): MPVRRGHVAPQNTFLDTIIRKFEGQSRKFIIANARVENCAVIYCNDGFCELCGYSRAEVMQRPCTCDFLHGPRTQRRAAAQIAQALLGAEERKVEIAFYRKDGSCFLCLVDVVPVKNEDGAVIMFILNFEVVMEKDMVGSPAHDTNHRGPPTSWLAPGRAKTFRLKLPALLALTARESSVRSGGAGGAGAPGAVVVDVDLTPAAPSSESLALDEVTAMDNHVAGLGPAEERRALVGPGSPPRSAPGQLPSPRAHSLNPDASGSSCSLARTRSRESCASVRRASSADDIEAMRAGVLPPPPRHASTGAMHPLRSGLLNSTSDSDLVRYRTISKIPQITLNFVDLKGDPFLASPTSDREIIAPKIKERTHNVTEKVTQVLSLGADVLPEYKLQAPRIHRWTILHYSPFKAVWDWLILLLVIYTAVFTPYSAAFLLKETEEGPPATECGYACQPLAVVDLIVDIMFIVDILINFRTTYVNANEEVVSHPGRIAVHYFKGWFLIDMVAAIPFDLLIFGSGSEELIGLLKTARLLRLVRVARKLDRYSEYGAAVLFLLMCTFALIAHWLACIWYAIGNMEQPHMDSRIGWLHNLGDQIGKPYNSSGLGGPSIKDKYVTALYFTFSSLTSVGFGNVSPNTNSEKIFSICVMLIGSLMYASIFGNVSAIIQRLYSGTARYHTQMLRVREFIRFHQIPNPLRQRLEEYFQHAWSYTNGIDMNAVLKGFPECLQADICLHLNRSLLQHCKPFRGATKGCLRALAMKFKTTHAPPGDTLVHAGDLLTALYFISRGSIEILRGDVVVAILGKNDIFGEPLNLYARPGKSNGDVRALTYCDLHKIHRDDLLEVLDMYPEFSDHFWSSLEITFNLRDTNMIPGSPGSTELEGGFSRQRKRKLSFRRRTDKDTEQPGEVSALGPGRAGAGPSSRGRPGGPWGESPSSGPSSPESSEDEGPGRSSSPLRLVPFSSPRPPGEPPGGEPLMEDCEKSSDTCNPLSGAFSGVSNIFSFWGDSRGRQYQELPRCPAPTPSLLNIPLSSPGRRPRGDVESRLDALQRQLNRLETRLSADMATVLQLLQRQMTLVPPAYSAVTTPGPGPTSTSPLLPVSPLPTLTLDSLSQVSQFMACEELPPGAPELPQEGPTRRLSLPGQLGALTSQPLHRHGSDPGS
# Sequence of Cytochrome P450 2D6 (P10635 whole entry): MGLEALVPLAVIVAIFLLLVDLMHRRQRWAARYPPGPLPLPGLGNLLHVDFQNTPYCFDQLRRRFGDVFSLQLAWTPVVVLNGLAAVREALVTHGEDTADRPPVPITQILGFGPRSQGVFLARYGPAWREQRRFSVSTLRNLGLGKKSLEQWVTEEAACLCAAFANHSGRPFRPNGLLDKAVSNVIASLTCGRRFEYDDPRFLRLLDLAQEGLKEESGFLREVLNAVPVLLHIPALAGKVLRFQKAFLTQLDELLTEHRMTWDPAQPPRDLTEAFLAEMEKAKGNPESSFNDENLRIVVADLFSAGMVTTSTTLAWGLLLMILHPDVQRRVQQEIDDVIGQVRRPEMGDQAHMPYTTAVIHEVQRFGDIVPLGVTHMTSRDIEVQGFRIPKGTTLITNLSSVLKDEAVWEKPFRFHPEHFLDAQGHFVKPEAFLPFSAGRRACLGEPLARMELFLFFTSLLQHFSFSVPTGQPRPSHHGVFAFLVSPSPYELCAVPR
# Sequence of Cytochrome P450 2C9 (P11712 whole entry): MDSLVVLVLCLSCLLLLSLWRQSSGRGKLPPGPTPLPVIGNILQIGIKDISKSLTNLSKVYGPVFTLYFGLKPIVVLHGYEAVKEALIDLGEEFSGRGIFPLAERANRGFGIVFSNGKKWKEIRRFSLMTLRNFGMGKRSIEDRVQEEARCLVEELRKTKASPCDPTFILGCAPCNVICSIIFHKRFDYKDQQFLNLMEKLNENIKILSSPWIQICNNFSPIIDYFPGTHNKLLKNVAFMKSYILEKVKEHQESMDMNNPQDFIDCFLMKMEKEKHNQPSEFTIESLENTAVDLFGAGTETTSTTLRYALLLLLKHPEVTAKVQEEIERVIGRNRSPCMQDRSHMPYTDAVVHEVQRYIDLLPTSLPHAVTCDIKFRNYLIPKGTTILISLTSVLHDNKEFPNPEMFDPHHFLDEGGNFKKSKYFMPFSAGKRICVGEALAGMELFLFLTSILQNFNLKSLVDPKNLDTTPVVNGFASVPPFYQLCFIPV
# Sequence of D(3) dopamine receptor (Homo sapiens) (P35462 whole entry): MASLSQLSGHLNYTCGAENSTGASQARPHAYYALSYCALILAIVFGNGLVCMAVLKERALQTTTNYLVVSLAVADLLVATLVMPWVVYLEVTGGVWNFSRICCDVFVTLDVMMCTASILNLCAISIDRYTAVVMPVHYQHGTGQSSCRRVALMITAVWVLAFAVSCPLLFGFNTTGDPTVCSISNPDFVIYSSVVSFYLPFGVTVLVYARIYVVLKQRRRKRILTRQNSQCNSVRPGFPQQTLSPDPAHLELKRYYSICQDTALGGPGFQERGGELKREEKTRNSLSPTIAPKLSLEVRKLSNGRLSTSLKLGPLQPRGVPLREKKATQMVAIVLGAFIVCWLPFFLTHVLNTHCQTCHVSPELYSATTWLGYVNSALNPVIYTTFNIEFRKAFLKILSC
smiles,measurement,setting,value
O=C1CC(=O)N(CCc2ccc(F)cc2)C(=O)N1CCCCc1ccccc1,EC50,PC-12 [1],3.55 µM
O=C1CC(=O)N(CCc2ccccc2F)C(=O)N1CCc1ccccc1F,EC50,PC-12 [1],3.29 µM
O=C1CC(=O)N(CCc2cccc(Cl)c2)C(=O)N1CCc1cccc(Cl)c1,EC50,PC-12 [1],2.97 µM
O=C1CC(=O)N(CCN2CCOCC2)C(=O)N1CCc1ccc(F)cc1,EC50,PC-12 [1],> 32 µM
CC1C(=O)N(CCc2ccccc2)C(=O)N(CCc2ccccc2)C1=O,EC50,PC-12 [1],> 32 µM
COc1cc(=O)n(CCc2ccccc2)c(=O)n1CCc1ccccc1,EC50,PC-12 [1],> 32 µM
O=C1NC(=O)N(C2CCCCC2)C1=O,EC50,PC-12 [1],> 32 µM
Cc1ccccc1C=C1C(=O)N(CCc2ccccc2)C(=O)N(CCc2ccccc2)C1=O,EC50,PC-12 [1],2.23 µM
CCCCN1C(=O)CC(=O)NC1=O,EC50,PC-12 [1],> 32 µM
CCOCCN1C(=O)CC(=O)N(CCOCC)C1=O,EC50,PC-12 [1],7.75 µM
O=C1CC(=O)N(C2CCCCC2)C(=O)N1,EC50,PC-12 [1],> 32 µM
O=C1CC(=O)N(C2CCCCC2)C(=O)N1C1CCCCC1,EC50,PC-12 [1],2.97 µM
O=C1CC(=O)N(CCc2ccc(Cl)cc2)C(=O)N1CCc1ccc(Cl)cc1,EC50,PC-12 [1],3.26 µM
O=C1CC(=O)N(CCc2ccccc2)C(=O)N1CCc1ccccc1,EC50,PC-12 [1],1.68 µM
same,inhibition,[2],41%
same,Tmax,Rattus norvegicus [3],45 min
same,Cmax,Rattus norvegicus [4],55 ng/mL
same,inhibition,[5],20%
same,AUClast,Rattus norvegicus [6],121 ng·h/mL
same,IC50,Cytochrome P450 2D6,> 50 µM
same,IC50,Cytochrome P450 1A2,> 50 µM
same,IC50,Cytochrome P450 2C9,> 50 µM
same,inhibition at 10 µM,hERG (KCNH2),4.9%
same,AUC/dose,Rattus norvegicus [7],124 ng·h/mL
same,inhibition,[8],19%
same,t1/2,Liver,39 min
same,Papp,Caco-2,26 ×10⁻⁶ cm/s
same,IC50,Cytochrome P450 3A4,> 50 µM
same,F,Rattus norvegicus [9],98%
same,t1/2,Rattus norvegicus [10],1.4 h
same,PPB,Plasma [11],95%
same,Activity,PC-12 [12],Active
same,t1/2,Rattus norvegicus [13],57 min
same,t1/2,Plasma [14],60.5 min
same,AUC/dose,Rattus norvegicus [15],126 ng·h/mL
same,Activity,PC-12 [16],Dose-dependent effect
same,Activity,PC-12 [17],Dose-dependent effect
same,t1/2,Liver microsomes,61 min
same,inhibition,[18],21%
same,Vdss,Rattus norvegicus [19],9 L/kg
same,PPB,Plasma [20],90%
same,IC50,Cytochrome P450 2C19,> 50 µM
O=C1CC(=O)N(CC(c2ccccc2)c2ccccc2)C(=O)N1CCCCc1ccccc1,EC50,PC-12 [1],3.61 µM
O=C1C(=O)N(CCc2ccccc2)C(=O)N1CCc1ccccc1,EC50,PC-12 [1],> 32 µM
O=C1CCC(=O)N(CCc2ccccc2)C(=O)N1CCc1ccccc1,EC50,PC-12 [1],> 32 µM
O=C1CC(=O)N(CCC(c2ccccc2)c2ccccc2)C(=O)N1CCC(c1ccccc1)c1ccccc1,EC50,PC-12 [1],1.39 µM
O=C1CC(=O)N(CCc2ccc(Cl)cc2Cl)C(=O)N1CCc1ccc(Cl)cc1Cl,EC50,PC-12 [1],1.87 µM
CCCN1C(=O)CC(=O)N(CCC)C1=O,EC50,PC-12 [1],7.68 µM
O=C1CC(=O)N(CCc2ccccc2)C(=O)N1CCCc1ccccc1,EC50,PC-12 [1],1.88 µM
O=C1CC(=O)N(CCc2cccs2)C(=O)N1CCc1cccs1,EC50,PC-12 [1],2.16 µM
O=C1CC(=O)N(CCc2ccc(F)cc2)C(=O)N1CCc1ccc(F)cc1,EC50,PC-12 [1],3.45 µM
O=C1CC(=O)N(C2CCCCC2)C(=O)N1CCc1ccccc1,EC50,PC-12 [1],1.67 µM
CC(C)(C)CCN1C(=O)CC(=O)N(CCC(C)(C)C)C1=O,EC50,PC-12 [1],2.03 µM
